Entries after “also recorded” stand apart in the source; their conditions may differ. Where two headings read alike, the source gives them in different places.
Legend:
PTP1B = biological target: T1, PTP1B (Homo sapiens, UniProt P18031); experiment: Phosphotyrosine phosphatase PTP1B inhibition; format: biochemical
T1 construct: purchased Upstate Biotechnology, Lake Placid, N.Y
T1 sequence (P18031 1-435): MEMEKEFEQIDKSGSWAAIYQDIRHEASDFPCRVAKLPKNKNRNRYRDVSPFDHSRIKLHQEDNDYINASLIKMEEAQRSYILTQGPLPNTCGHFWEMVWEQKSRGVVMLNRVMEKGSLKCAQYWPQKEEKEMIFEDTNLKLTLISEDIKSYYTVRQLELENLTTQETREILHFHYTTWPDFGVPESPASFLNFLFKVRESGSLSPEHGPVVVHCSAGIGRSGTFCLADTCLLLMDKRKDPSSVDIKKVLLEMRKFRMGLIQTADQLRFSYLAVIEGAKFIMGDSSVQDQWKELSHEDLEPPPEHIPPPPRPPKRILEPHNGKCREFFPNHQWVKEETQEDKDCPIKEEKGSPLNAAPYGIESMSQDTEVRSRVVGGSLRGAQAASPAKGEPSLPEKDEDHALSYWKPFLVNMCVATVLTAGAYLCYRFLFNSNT

PP1 = experiment: Serine/threonine phosphatase PP1 inhibition; format: biochemical; details: vs CD45 and PTP1B
CEM = experiment: Apoptosis: DNA fragmentation on agarose gel; format: cell-based, human
Protocol: (§1) For these experiments, cell samples (2×10^6 cells) were centrifuged at 200× g, the media removed by aspiration and the cell pellets stored at -70° C. until processing. Cell pellets were resuspended in 300 μl digestion buffer (100 mM NaCl, 10 mM Tris-HCl, pH 8.0, 25 mM EDTA, 0.5% SDS, 0.1 mg/ml protease K) and incubated for 12 hours at 50° C. DNase-free ribonuclease (5 μg) in 200 μl TE buffer (10 mM Tris-HCl, pH 7.5, 1 mM EDTA) was added to each sample followed by incubation for 2 hours at 37° C. DNA was then extracted once with phenol:chloroform, once with chloroform and then precipitated with 0.5 volumes of ammonium acetate and 2 volumes of ethanol at -70° C. for 12 hours. The precipitated DNA was resuspended in 200 μl TE buffer and quantitated by absorbance at 260 nanometers. The DNA (15 μg) was applied to a 1.3% agarose gel in TBE buffer (89 mM Tris base, 89 mM boric acid, 2 mM EDTA) resolved at 20 mA constant current and the DNA was visualized by staining with ethidium bromide. Fragmented DNA due to apoptosis appeared as a ladder of bands on the gel.

HL60 = experiment: Apoptosis: DNA fragmentation on agarose gel; format: cell-based, human; details: dose dependent
Protocol: as §1

Jurkat = experiment: Apoptosis: DNA fragmentation on agarose gel; format: cell-based, human
Protocol: as §1

[1] = test system: Ramos B cell lymphoma cells; experiment: Apoptosis: DNA fragmentation on agarose gel; format: cell-based, human; details: 10 μM, by 48 hours
Protocol: as §1

[2] = test system: antibody-producing B cells; experiment: Class-switching: Ig production by anti-CD40 + IL-4 treated B cells; format: cell-based, human
Protocol: The effects of BMLOV were assayed on class-switching in antibody-producing B cells. Human B cells producing antibody were treated with anti-CD40 antibody plus IL-4, which increased production of IgE over 10-fold (Table 7). […] In contrast, the production of IgG1 and IgG4 was much less affected, particularly at a dose of 5.6 μM BMLOV. This selective effect is important because the IgG antibody production is an important response to infectious disease. It would be of value to suppress IgE production for the treatment of allergies while maintaining IgG production, particularly in conditions in which an allergy coexists with an infectious disease. A common example is the exacerbation of allergic rhinitis (hay fever) as the result of a respiratory infection.

ZAP-70 = ZAP-70 tyrosine phosphorylation in T cells; format: cell-based; details: 16 h BMLOV, anti-CD3 stimulation
Protocol: In the experiments shown in FIG. 25, human PHA-induced T cell blasts were treated overnight with the indicated concentrations of BMLOV. In Panel A, the baseline level of intracellular free Ca^2+ ([Ca^2+ ]i) was established for 1 min, and then the cells were treated with biotinylated anti-CD3 mAb (G19-4). After 5 min avidin was added (gap in the trace) to cross-link the antibody. In Panel B, assays were performed as in Panel A, but in the presence of 5 mM EGTA. […] In the experiments shown in FIG. 26, cells were treated 16 h with BMLOV and then stimulated with anti-CD3 mAb G19-4 for 5 min. Cells were then washed and resuspended in fresh media at equal concentrations of BMLOV at 37° C. Cells were then harvested and lysed at times following the initiation of CD3 stimulation as indicated. Antibody binding in immunoblots was detected by ECL.

[3] = test system: normal peripheral B cells; details: human, 120 h, 25 µM
Protocol: Cell death was measured by staining cells with propidium iodine followed by flow cytometry (EPICS C, Coulter) as previously described (N. K. Damle et al. (1993), supra; Y. Liu & C. A. J. Janeway, "Interferon Gamma Plays a Critical Role in Induced Cell Death of Effector T Cells: A Possible Third Mechanism of Self-Tolerance," J. Exp. Med. 172:1735-1739 (1990)). Flow cytometric data on forward scatter and red fluorescence arising from propidium iodine binding to cellular DNA was collected for 5,000 cells and analyzed by the Quadstat Program (N. K. Damle, (1993), supra). The membranes of dead cells are permeable to propidium iodine (Y. Liu & C. A. Janeway, (1990), supra), but cells undergoing the process of apoptosis can shrink in size while temporarily maintaining plasma membrane integrity (J. J. Cohen et al., "Apoptosis and Programmed Cell Death and Immunity," Annu. Rev. Immunol. 10:267-293 (1992)). […] Only cells displaying normal size and resistance to staining by propidium iodide are considered viable cells and are found in the lower left quadrant (M. K. Damle et al. (1993), supra). The percentage of cells in each quadrant was calculated by the Quadstat program. […]
To provide a final measure of cell death, propidium iodide staining of cells was used. […] Viability was measured by staining with propidium iodide followed by flow cytometric analysis as described above. […]

[4] = Anti-CD40 + IL-4 + 0.002 μM BMLOV
[5] = Anti-CD40 + IL-4 + 0.008 μM BMLOV
[6] = Anti-CD40 + IL-4 + 0.02 μM BMLOV
[7] = Anti-CD40 + IL-4 + 0.07 μM BMLOV
[8] = Anti-CD40 + IL-4 + 0.2 μM BMLOV
[9] = Anti-CD40 + IL-4 + 0.6 μM BMLOV
[10] = Anti-CD40 + IL-4 + 1.9 μM BMLOV
[11] = Anti-CD40 + IL-4 + 5.6 μM BMLOV

## Cc1occc(=O)c1[O-].Cc1occc(=O)c1[O-].[O]=[V+2] [BMLOV, Bis(maltolato)oxovanadium (IV)]
PTP1B
  IC50: ~0.025 µM
PTP1B; Table 1, phosphorylated myelin basic protein substrate
  IC50: 0.026 µM
PTP1B; Table 8
  IC50: 0.026 µM
PP1
  concentration for similar inhibition relative to phosphotyrosine phosphatases: over 100 fold
CEM
  induction of apoptosis (DNA fragmentation): apoptosis was not observed; also recorded: DNA fragmentation was not observed
HL60
  induction of apoptosis (DNA fragmentation): Apoptosis was also observed to be induced; also recorded: DNA fragmentation was also induced
Jurkat
  induction of apoptosis (DNA fragmentation): apoptosis was not observed; also recorded: DNA fragmentation was not observed
[1]
  induction of apoptosis (DNA fragmentation): induced apoptosis; also recorded: induced extensive DNA fragmentation
[2]; 5.6 or 17 μM BMLOV
  increased production of IgE, in words: markedly inhibited
[2]; [4]
  [Ig] IgE: 3.9 ng/mL
  [Ig] IgG1: 450 ng/mL
  [Ig] IgG4: 1.7 ng/mL
  [Ig] IgM: 20.4 ng/mL
[2]; [5]
  [Ig] IgE: 2.6 ng/mL
  [Ig] IgG1: 450 ng/mL
  [Ig] IgG4: 1.1 ng/mL
  [Ig] IgM: 20.4 ng/mL
[2]; [6]
  [Ig] IgE: 4.5 ng/mL
  [Ig] IgG1: 390 ng/mL
  [Ig] IgG4: 1.3 ng/mL
  [Ig] IgM: 19.2 ng/mL
[2]; [7]
  [Ig] IgE: 5.1 ng/mL
  [Ig] IgG1: 450 ng/mL
  [Ig] IgG4: 2.7 ng/mL
  [Ig] IgM: 12.0 ng/mL
[2]; [8]
  [Ig] IgE: 7.5 ng/mL
  [Ig] IgG1: 495 ng/mL
  [Ig] IgG4: 1.2 ng/mL
  [Ig] IgM: 13.8 ng/mL
[2]; [9]
  [Ig] IgE: 5.7 ng/mL
  [Ig] IgG1: 480 ng/mL
  [Ig] IgG4: 1.3 ng/mL
  [Ig] IgM: 17.4 ng/mL
[2]; [10]
  [Ig] IgE: 3.0 ng/mL
  [Ig] IgG1: 450 ng/mL
  [Ig] IgG4: 2.7 ng/mL
  [Ig] IgM: 15.6 ng/mL
[2]; [11]
  [Ig] IgE: 1.2 ng/mL
  [Ig] IgG1: 480 ng/mL
  [Ig] IgG4: 1.8 ng/mL
  [Ig] IgM: 18.6 ng/mL
[2]; Anti-CD40 + IL-4 + 17 μM BMLOV
  [Ig] IgE: 0.8 ng/mL
  [Ig] IgG1: 450 ng/mL
  [Ig] IgG4: 0.8 ng/mL
  [Ig] IgM: 18.0 ng/mL
[2]; Anti-CD40 + IL-4 + 50 μM BMLOV
  [Ig] IgE: 0.2 ng/mL
  [Ig] IgG1: 60 ng/mL
  [Ig] IgG4: 0.5 ng/mL
  [Ig] IgM: 5.1 ng/mL
ZAP-70
  tyrosine phosphorylation of ZAP-70 or the associated zeta chain: little effect was observed
[3]
  viable cells: 27%

Reference: patent publication US5877210A, “Phosphotyrosine phosphatase inhibitors or phosphotyrosine kinase activators for controlling cellular proliferation” (priority 1995, dated 1999)
